ChEMBL document CHEMBL1201862, “PubChem BioAssay data set” (2004)
Activity calls are given as the source filed them.

test system: Streptococcus sp. 'group A'; experiment: Streptococcus pyogenes SK(-)GAS viability under kanamycin – luminescence, BacTiterGlo, confirmation, counter-screen for streptokinase expression inhibitor project, dose response (AID 1900); format: functional, organism-based; settings: not given

Row | Compound | EC50
1 | COc1cccc(NC(S)=NN=C2CCCCCC2)c1 | 17.5 µM (active)

biological target: T1, Heat shock factor protein 1 (Mus musculus, UniProt P38532); experiment: decrease of HSF1-responsive luciferase luminescence – cell-based, NIH3T3, dose retest, confirmation (AID 2382); format: functional; settings: not given;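 note: NIH3T3 fibroblasts with HSF1-driven luciferase reporter stressed by proteasome inhibitor MG132; luminescence from HSF1-driven luciferase expression after 8 hours of MG132 stress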
T1 sequence (P38532 whole entry): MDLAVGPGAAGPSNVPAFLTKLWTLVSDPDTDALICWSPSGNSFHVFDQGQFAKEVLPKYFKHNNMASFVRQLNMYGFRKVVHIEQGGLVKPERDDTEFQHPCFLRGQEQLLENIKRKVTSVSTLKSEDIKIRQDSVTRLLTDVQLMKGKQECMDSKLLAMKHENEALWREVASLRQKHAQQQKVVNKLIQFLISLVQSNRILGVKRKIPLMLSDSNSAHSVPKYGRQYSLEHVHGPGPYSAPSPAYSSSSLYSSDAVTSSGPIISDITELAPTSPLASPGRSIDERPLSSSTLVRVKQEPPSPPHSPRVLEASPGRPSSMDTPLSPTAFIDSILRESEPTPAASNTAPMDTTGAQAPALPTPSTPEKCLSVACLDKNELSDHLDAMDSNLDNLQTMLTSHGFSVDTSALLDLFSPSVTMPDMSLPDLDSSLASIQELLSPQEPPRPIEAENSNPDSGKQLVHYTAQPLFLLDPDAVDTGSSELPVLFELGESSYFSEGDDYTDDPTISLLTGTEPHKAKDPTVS

Row | Compound | EC50
2 | Cc1cccc2c(C(=O)N3CCN(c4ccccn4)CC3)cc(-c3cccc(Br)c3)nc12 | > 195 µM (not active)
3 | CC(C)Nc1nnc(Sc2ccc(Cl)cc2[N+](=O)[O-])s1 | > 195 µM (not active)

biological target: T2, Streptokinase A (Streptococcus pyogenes serotype M1, UniProt P10520); experiment: viability-normalized secreted streptokinase activity reduction – plasminogen activation absorbance, OD405, dose response (AID 1914); format: functional, Streptococcus pyogenes M1 GAS; settings: not given;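 note: secreted streptokinase activity via plasminogen activation per viability signal from cell pellet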
T2 sequence (P10520 whole entry): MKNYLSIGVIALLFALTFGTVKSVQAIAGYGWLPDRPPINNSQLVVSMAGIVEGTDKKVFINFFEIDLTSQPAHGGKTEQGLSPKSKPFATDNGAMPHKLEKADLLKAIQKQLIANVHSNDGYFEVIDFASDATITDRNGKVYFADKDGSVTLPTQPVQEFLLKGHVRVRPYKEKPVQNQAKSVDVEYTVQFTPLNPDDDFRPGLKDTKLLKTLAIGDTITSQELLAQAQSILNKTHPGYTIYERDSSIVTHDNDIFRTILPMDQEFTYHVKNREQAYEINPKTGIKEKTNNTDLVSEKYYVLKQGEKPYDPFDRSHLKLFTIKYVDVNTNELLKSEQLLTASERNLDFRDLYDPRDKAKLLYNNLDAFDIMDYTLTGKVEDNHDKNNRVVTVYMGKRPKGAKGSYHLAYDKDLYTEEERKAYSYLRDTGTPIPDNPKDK

Row | Compound | EC50
4 | COc1cccc(NC(S)=NN=C2CCCCCC2)c1 | > 150 µM (not active)

biological target: T3, Calpain-2 catalytic subunit (Sus scrofa, UniProt P43367); experiment: m-calpain protease blockers, concentration series – biochemical, fluorogenic peptide substrate, dose response (AID 1420); format: functional; settings: not given
T3 sequence (P43367 whole entry): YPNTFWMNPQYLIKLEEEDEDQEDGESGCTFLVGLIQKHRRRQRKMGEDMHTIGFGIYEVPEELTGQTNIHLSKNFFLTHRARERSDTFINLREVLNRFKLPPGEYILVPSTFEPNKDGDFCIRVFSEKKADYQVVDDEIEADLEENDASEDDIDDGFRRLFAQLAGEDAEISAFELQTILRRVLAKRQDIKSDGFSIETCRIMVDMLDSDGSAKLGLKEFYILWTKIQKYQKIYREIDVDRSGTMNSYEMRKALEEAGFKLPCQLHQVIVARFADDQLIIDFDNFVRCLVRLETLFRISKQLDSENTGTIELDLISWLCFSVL

Row | Compound | IC50
5 | CC(C)CCNC(=O)C12CN(Cc3ccccc3)CC1C(c1ccc([N+](=O)[O-])cc1)=NO2 (stereo not given) | 7.38 µM (not active)
6 | O=C(OCCN1C(=O)c2ccccc2C1=O)c1ccc(S(=O)(=O)N2CCCCCC2)cc1 | > 50 µM (not active)
7 | Nn1c(SCC(=O)NC(=O)Nc2ccc3c(c2)OCCO3)nnc1C1CC1 | 9.49 µM (not active)
8 | Cc1cc(C)c(S(=O)(=O)Nc2ccc3c(c2)CCC3)c(C)c1 | 11.4 µM (not active)
9 | CC(C)Nc1nnc(Sc2ccc(Cl)cc2[N+](=O)[O-])s1 | 4.91 µM (not active)
10 | CCCN(CCC)C(=O)CC(c1ccccc1)c1cc(Br)ccc1O (stereo not given) | 16 µM (not active)
11 | CC(C)(C)c1ccc(OCCNC(=S)Nc2ccccc2)cc1 | 8.08 µM (not active)
12 | COc1cccc(NC(S)=NN=C2CCCCCC2)c1 | > 50 µM (not active)
13 | CC(C)(C)N(Cc1ccccc1)C(=O)CCc1ccccc1 | 32.5 µM (not active)

test system: Streptococcus; experiment: GAS UMAA2166 growth inhibition – luminescence, BacTiterGlo, counter-screen for streptokinase expression inhibitor project, dose response (AID 1915); format: functional, organism-based; settings: not given;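 note: potency for reduction of bacterial viability or growth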

Row | Compound | EC50
14 | COc1cccc(NC(S)=NN=C2CCCCCC2)c1 | > 150 µM (not active)

biological target: T4, Replicative DNA helicase DnaB (Mycobacterium tuberculosis, UniProt P9WMR3); experiment: DnaB intein splicing inhibitors, dose response, biochemical, cell-free fluorescence (AID 449749); format: functional; settings: not given
T4 sequence (P9WMR3 whole entry): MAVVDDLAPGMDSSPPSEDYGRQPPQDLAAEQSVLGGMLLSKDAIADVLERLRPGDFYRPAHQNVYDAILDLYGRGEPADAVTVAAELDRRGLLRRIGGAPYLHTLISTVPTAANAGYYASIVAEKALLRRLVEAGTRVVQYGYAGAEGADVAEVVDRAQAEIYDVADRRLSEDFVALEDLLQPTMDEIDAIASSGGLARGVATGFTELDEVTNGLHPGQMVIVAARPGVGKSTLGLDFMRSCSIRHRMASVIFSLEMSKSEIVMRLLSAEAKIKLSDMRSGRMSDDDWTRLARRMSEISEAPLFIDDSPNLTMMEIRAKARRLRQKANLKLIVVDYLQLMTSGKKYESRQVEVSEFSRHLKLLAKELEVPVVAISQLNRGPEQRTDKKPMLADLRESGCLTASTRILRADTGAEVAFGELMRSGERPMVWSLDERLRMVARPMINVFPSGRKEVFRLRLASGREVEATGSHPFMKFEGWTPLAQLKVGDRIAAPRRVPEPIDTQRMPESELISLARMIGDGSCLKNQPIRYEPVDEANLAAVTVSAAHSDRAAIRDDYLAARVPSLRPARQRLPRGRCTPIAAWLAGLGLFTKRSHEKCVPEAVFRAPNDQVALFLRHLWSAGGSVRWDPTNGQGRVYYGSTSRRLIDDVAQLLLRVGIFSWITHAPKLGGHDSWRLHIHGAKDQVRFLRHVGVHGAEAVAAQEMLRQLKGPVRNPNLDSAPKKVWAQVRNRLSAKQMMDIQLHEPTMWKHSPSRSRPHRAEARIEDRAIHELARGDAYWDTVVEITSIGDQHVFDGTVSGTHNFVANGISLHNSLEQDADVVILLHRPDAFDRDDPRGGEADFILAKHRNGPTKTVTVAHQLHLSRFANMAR

Row | Compound | AC50
15 | O=C(CCl)N1N=C(c2ccco2)CC1c1ccco1 (stereo not given) | > 380 µM (inactive)

biological target: T5, Protein RecA (Mycobacterium tuberculosis, UniProt P9WHJ3); experiment: Fluorescence Cell-Free Homogeneous Dose Retest to Identify Inhibitors of RecA-Intein Splicing Activity. [Related pubchem assays (depositor defined):AID2097, AID2223, AID489010, AID492950]; format: functional; settings: not given
T5 sequence (P9WHJ3 whole entry): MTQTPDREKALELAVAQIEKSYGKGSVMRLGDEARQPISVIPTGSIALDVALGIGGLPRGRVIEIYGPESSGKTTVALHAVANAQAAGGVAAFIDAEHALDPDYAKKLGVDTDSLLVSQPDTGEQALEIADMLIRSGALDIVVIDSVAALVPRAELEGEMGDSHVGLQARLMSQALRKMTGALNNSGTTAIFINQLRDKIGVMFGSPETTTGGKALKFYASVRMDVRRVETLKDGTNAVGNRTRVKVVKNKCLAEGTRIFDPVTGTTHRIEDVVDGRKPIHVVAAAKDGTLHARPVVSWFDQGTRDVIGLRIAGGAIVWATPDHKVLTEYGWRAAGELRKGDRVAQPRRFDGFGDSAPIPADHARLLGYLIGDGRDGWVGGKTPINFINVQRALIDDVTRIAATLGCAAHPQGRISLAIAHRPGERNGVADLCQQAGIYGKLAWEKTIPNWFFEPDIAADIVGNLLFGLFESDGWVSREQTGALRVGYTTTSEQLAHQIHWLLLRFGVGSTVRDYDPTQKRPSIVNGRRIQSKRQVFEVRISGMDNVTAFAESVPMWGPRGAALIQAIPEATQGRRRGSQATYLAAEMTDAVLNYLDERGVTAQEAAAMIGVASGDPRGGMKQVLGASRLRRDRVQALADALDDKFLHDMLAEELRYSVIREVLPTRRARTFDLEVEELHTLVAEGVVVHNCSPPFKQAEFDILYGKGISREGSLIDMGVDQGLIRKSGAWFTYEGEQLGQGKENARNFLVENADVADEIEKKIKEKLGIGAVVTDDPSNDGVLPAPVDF

Row | Compound | EC50
16 | O=C(CCl)N1N=C(c2ccco2)CC1c1ccco1 (stereo not given) | 9.97 µM (active)

test system: INS1; experiment: INS-1E survival protection against cytokine death – cell-based, luminescence, retest, dose response (AID 449756); format: functional; settings: Rattus norvegicus;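 note: cell death triggered by IL-1 beta plus TNF-alpha plus IFN-gamma mixture; protective hits raise ATP signal compared with cytokine alone wells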

Row | Compound | AC50
17 | Cc1cccc2c(C(=O)N3CCN(c4ccccn4)CC3)cc(-c3cccc(Br)c3)nc12 | 3.73 µM (active)

test system: Vero; experiment: cells; format: functional; settings: Chlorocebus sabaeus

Row | Compound | CC50
18 | O=C(CCl)N1N=C(c2ccco2)CC1c1ccco1 (stereo not given) | 9.82 µM (active)

test system: not listed separately; experiment: reduction of Shn3 3'UTR-driven luciferase in osteoblasts – cell-based, Clone20 osteoblasts, firefly luciferase, cherry-picked, dose response (AID 624132); format: functional; settings: not given;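 note: firefly luciferase luminescence from reporter carrying the Shn3 3'UTR in osteoblasts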

Row | Compound | AC50
19 | Cc1cccc2c(C(=O)N3CCN(c4ccccn4)CC3)cc(-c3cccc(Br)c3)nc12 | 6.48 µM (active)

test system: not listed separately; experiment: loss of viability in HepG2 cells – cell-based, CellTiter-Glo, cherry-picked, cytotoxicity control for Shn3 inhibitor project, dose response (AID 624134); format: functional; settings: not given

Row | Compound | AC50
20 | Cc1cccc2c(C(=O)N3CCN(c4ccccn4)CC3)cc(-c3cccc(Br)c3)nc12 | 45.4 µM (active)
